The assay has as its system Staphylococcus aureus. In words: Antibacterial activity against Staphylococcus aureus at 1 mg/ml. Format: functional, organism-based.

This is an account of results in ChEMBL document CHEMBL1765078, “17-Hydroxycyclooctatin, a fused 5-8-5 ring diterpene, from Streptomyces sp. MTE4a” (J Nat Prod, 2011).

Structures are written as SMILES. Active and inactive are the calls of the source. The calls are words filed in the database; no cut-off is given here.

Regarding `C[C@H](CO)[C@H]1CC[C@]2(C)C[C@@H]3[C@H](CO)C[C@@H](O)[C@H]3[C@@](C)(O)C/C=C/12`, the outcome was inactive.
